18 compounds from DBAASP can be followed below.

≈ marks a conversion by molar mass, not a printed value. Some results are limits rather than exact numbers.

Common to all, as to experiment: ≥ marks a high value that may be exact or a test limit, other limits are often not marked, values filed in µg/mL are converted to µM
The test system of assay [1] is Escherichia coli ATCC 25922.
For assay [2], the system named is Pseudomonas aeruginosa ATCC 27853.
Assay [3] deals with Staphylococcus aureus ATCC 29213.
Assay [4] has as its system Staphylococcus epidermidis ATCC 12228.
Another assay deals with Escherichia coli.
The subject of the next assay is Staphylococcus aureus.
Assay [5] relates to Staphylococcus aureus ATCC 25923.

Turning to `CC[C@H](C)[C@H](NC(=O)[C@H](CCSC)NC(=O)[C@H](C)NC(=O)[C@@H]1CCCN1C(=O)[C@@H](NC(=O)[C@@H](NC(=O)[C@H](CCCCN)NC(=O)[C@@H](NC(=O)[C@H](CC(C)C)NC(=O)CNC(=O)CN)[C@@H](C)CC)[C@@H](C)CC)C(C)C)C(=O)N[C@H]1CSSC[C@@H](C(=O)O)NC(=O)[C@H](CCCCN)NC(=O)[C@H](CCCCN)NC(=O)[C@H]([C@@H](C)O)NC(=O)[C@H](C(C)C)NC(=O)[C@H](C)NC1=O` [GGLIKIVPAMICAVTKKC], the minimum inhibitory concentration (MIC) is greater than 139 µM in assay [1], greater than 139 µM in assay [2] and 139 µM (≈ 256 µg/mL) in assay [3].
For the compound `CC(C)C[C@H](NC(=O)[C@@H](NC(=O)[C@H](C)NC(=O)CNC(=O)[C@H](Cc1c[nH]c2ccccc12)NC(=O)[C@H](CC(N)=O)NC(=O)[C@@H](N)CC(C)C)C(C)C)C(=O)N[C@@H](CCCCN)C(=O)N[C@@H](Cc1cnc[nH]1)C(=O)N[C@H](C(=O)N[C@H](C(=O)N[C@@H](CCCCN)C(=O)O)C(C)C)C(C)C` [LNWGAVLKHVVK], the MIC in assay [2] came out at 32 µM (≈ 43.6 µg/mL).
In the case of `CC[C@H](C)[C@H](NC(=O)[C@H](CCCN=C(N)N)NC(=O)[C@H](CCC(N)=O)NC(=O)[C@@H](NC(=O)[C@@H](NC(=O)[C@H](CCCN=C(N)N)NC(=O)[C@H](CCCCN)NC(=O)[C@@H](N)Cc1ccccc1)[C@@H](C)CC)C(C)C)C(=O)N[C@@H](CCCCN)C(=O)N[C@@H](CC(=O)O)C(=O)N[C@@H](CC(N)=O)C(=O)N[C@@H](CC(C)C)C(=O)N[C@@H](CCCN=C(N)N)C(=O)O` [FKRIVQRIKDNLR], the values for the MIC in assay [1] and in assay [3] were 20 µM (≈ 33.7 µg/mL) and greater than 40 µM, respectively.
For `CC(=O)N[C@@H](CCCCN)C(=O)N[C@@H](CC(C)C)C(=O)N[C@@H](CC(C)C)C(=O)N[C@@H](CCCCN)C(=O)N[C@@H](CC(C)C)C(=O)N[C@@H](CC(C)C)C(=O)N[C@@H](CCCCN)C(=O)N[C@@H](CCCCN)C(=O)N[C@@H](CC(C)C)C(=O)N[C@@H](CC(C)C)C(=O)N[C@@H](CCCCN)C(=O)N1CCC[C@H]1C(=O)N[C@@H](CC(C)C)C(=O)N[C@@H](CCCCN)C(N)=O` [KLLKLLKKLLKPLK] the same measures were 28.3 µM (≈ 48.6 µg/mL) and 10 µM (≈ 17.2 µg/mL).
As for `NC(=O)[C@H](Cc1ccccc1)NC(=O)[C@H](Cc1ccccc1)NC(=O)[C@H](Cc1ccccc1)NC(=O)[C@@H]1CCCN1C(=O)[C@H](CCCN=C(N)N)NC(=O)[C@@H]1CCCN1C(=O)[C@H](CCCN=C(N)N)NC(=O)[C@@H]1CCCN1C(=O)[C@H](CCCN=C(N)N)NC(=O)[C@@H]1CCCN1C(=O)[C@H](CCCN=C(N)N)NC(=O)[C@@H](N)CCCN=C(N)N` [RRPRPRPRPFFF], the results for the MIC in assay [1], in assay [2] and in assay [3] were 80 µM (≈ 130 µg/mL), greater than 160 µM and 40 µM (≈ 65.1 µg/mL), respectively.
In the case of `CC(=O)N[C@@H](CCCCN)C(=O)N[C@@H](CC(C)C)C(=O)N[C@@H](CC(C)C)C(=O)N[C@@H](CCCCN)C(=O)N[C@@H](CC(C)C)C(=O)N[C@@H](CC(C)C)C(=O)N1CCC[C@H]1C(=O)N[C@@H](CCCCN)C(=O)N[C@@H](CC(C)C)C(=O)N[C@@H](CC(C)C)C(=O)N[C@@H](CCCCN)C(=O)N[C@@H](CC(C)C)C(=O)N[C@@H](CC(C)C)C(=O)N[C@@H](CCCCN)C(N)=O` [KLLKLLPKLLKLLK], the minimal inhibitory concentration (MIC) in assay [1] turned out to be 10 µM (≈ 17 µg/mL); in assay [3] it was 5 µM (≈ 8.51 µg/mL).
With `CC[C@H](C)[C@H](NC(=O)CN)C(=O)N[C@@H](CCCCN)C(=O)N[C@@H](CCCCN)C(=O)N[C@@H](Cc1c[nH]c2ccccc12)C(=O)N[C@@H](CC(C)C)C(=O)N[C@@H](Cc1cnc[nH]1)C(=O)N[C@@H](CO)C(=O)N[C@@H](C)C(=O)N[C@@H](CCCCN)C(=O)N[C@@H](CCCCN)C(=O)N1CCC[C@H]1C(=O)N1CCC[C@H]1C(=O)N[C@@H](CCCCN)C(=O)N[C@@H](CCCCN)C(=O)N[C@@H](Cc1ccccc1)C(=O)N[C@H](C(=O)N[C@@H](CCCCN)C(=O)N[C@@H](CCCCN)C(=O)N[C@H](C(=O)N[C@@H](CCSC)C(=O)N[C@@H](CC(N)=O)C(=O)N[C@@H](CO)C(N)=O)[C@@H](C)CC)C(C)C` [GIKKWLHSAKKPPKKFVKKIMNS], the values for the MIC in assay [1] and in assay [4] were greater than 80 µM and 10 µM (≈ 26.9 µg/mL), respectively.
In the case of `CC[C@H](C)[C@H](N)C(=O)N[C@H](C(=O)N[C@@H](CO)C(=O)N[C@H](C(=O)N[C@H](C(=O)NCC(=O)N[C@@H](CCCCN)C(=O)N[C@@H](CC(C)C)C(=O)N1CCC[C@H]1C(=O)N[C@@H](CCCCN)C(=O)N[C@@H](Cc1c[nH]c2ccccc12)C(=O)N[C@H](C(=O)N[C@H](C(=O)N[C@@H](CCCCN)C(=O)N[C@H](C(=O)N[C@H](C(=O)N[C@@H](CC(N)=O)C(=O)N[C@@H](CCCCN)C(=O)N[C@@H](Cc1ccccc1)C(=O)N[C@H](C(=O)N[C@@H](CCCCN)C(=O)N[C@@H](CCCCN)C(=O)O)[C@@H](C)O)C(C)C)[C@@H](C)O)[C@@H](C)CC)[C@@H](C)CC)[C@@H](C)CC)[C@@H](C)O)[C@@H](C)CC` [IISTIGKLPKWIIKTVNKFTKK], the minimal inhibitory concentration (MIC) against Escherichia coli was found to be 2.7 µM (≈ 6.9 µg/mL); against Staphylococcus aureus it was 22 µM (≈ 56.3 µg/mL).
For `CC(C)[C@H](NC(=O)[C@H](Cc1c[nH]c2ccccc12)NC(=O)[C@H](CCCCN)NC(=O)[C@@H](N)CCCN=C(N)N)C(=O)N[C@@H](CCCCN)C(=O)N[C@@H](Cc1c[nH]c2ccccc12)C(=O)N[C@@H](CCCN=C(N)N)C(=O)N[C@@H](CC(N)=O)C(=O)N[C@@H](CCCN=C(N)N)C(=O)O` [RKWVKWRNR], the MIC amounted to 94.1 µM (≈ 125 µg/mL) in assay [1] and 23.5 µM (≈ 31.3 µg/mL) in assay [3].
For `CC[C@H](C)[C@H](NC(=O)[C@H](CCCCN)NC(=O)[C@H](CCCCN)NC(=O)[C@H](C)N)C(=O)N[C@@H](CCCN=C(N)N)C(=O)N[C@H](C(=O)N[C@@H](CCCN=C(N)N)C(=O)N[C@@H](CC(C)C)C(=O)N[C@@H](CO)C(=O)N[C@@H](C)C(=O)O)C(C)C` [AKKIRVRLSA], the MIC in assay [1] is 14 µM (≈ 16 µg/mL); in assay [2], 14 µM (≈ 16 µg/mL); in assay [3], greater than 56.1 µM.
Take `CC(C)C[C@H](NC(=O)[C@H](CCCCN)NC(=O)CNC(=O)[C@H](CC(C)C)NC(=O)[C@H](CCCCN)NC(=O)[C@H](CCCCN)NC(=O)CNC(=O)[C@H](CC(C)C)NC(=O)[C@@H](N)CCCCN)C(=O)NCC(=O)N[C@@H](CCCCN)C(=O)N[C@@H](CCCCN)C(=O)N[C@@H](CC(C)C)C(=O)NCC(N)=O` [KLGKKLGKLGKKLG]: the MIC in assay [1] and in assay [5] was 22 µM (≈ 32.3 µg/mL) in each case.
On to `CC(C)C[C@H](NC(=O)[C@H](CCCCN)NC(=O)[C@@H]1CSSC[C@H](N)C(=O)N[C@@H](CCCCN)C(=O)N[C@@H](CCCCN)C(=O)N[C@@H](CC(C)C)C(=O)N[C@@H](CC(C)C)C(=O)N[C@@H](CCCCN)C(=O)N[C@@H](CC(C)C)C(=O)N[C@@H](CC(C)C)C(=O)N[C@@H](CCCCN)C(=O)N[C@@H](CCCCN)C(=O)N[C@@H](CC(C)C)C(=O)N1)C(=O)N[C@@H](C)C(=O)NCC(=O)O` [CKKLLKLLKKLCKLAG], for which the MIC in assay [1] was 5 µM (≈ 8.99 µg/mL); in the assay with Escherichia coli, 20 µM (≈ 36 µg/mL); in assay [3], greater than 40 µM.
For `CC(C)[C@H](NC(=O)[C@H](C)NC(=O)[C@@H](N)Cc1ccccc1)C(=O)N[C@H](C(=O)N[C@@H](Cc1c[nH]c2ccccc12)C(=O)N[C@@H](C)C(=O)N[C@H](C(=O)N[C@@H](CCCCN)C(=O)N[C@@H](Cc1c[nH]c2ccccc12)C(=O)N[C@@H](Cc1c[nH]c2ccccc12)C(=O)N[C@@H](CCCCN)C(=O)NCC(N)=O)[C@@H](C)O)[C@@H](C)O` [FAVTWATKWWKG], the minimal inhibitory concentration (MIC) is greater than 125 µM in assay [1] and 100 µM (≈ 148 µg/mL) in assay [5].
For `CSCC[C@H](NC(=O)[C@H](CC(N)=O)NC(=O)[C@H](Cc1ccccc1)NC(=O)CNC(=O)[C@H](CC(=O)O)NC(=O)[C@H](CC(C)C)NC(=O)[C@H](CCCCN)NC(=O)[C@H](CCSC)NC(=O)[C@H](CCC(=O)O)NC(=O)[C@@H](N)CC(=O)O)C(=O)N[C@@H](Cc1cnc[nH]1)C(=O)N[C@@H](CC(C)C)C(=O)N[C@@H](CCC(=O)O)C(N)=O` [DEMKLDGFNMHLE] the same measures were 20 µM (≈ 31.6 µg/mL) and 40.5 µM (≈ 63.9 µg/mL).
As for `NC(=O)[C@H](Cc1c[nH]c2ccccc12)NC(=O)[C@H](CCCN=C(N)N)NC(=O)[C@H](Cc1c[nH]c2ccccc12)NC(=O)[C@H](CCCN=C(N)N)NC(=O)[C@H](Cc1c[nH]c2ccccc12)NC(=O)[C@@H](N)Cc1c[nH]c2ccccc12` [WWRWRW], the MIC worked out at 9.3 µM (≈ 9.99 µg/mL) in assay [1], 18.6 µM (≈ 20 µg/mL) in assay [2] and 4.65 µM (≈ 5 µg/mL) in assay [5].
With `CC[C@H](C)[C@H](NC(=O)CN)C(=O)NCC(=O)N[C@@H](CCCCN)C(=O)N[C@@H](Cc1ccccc1)C(=O)N[C@@H](CC(C)C)C(=O)N[C@@H](Cc1cnc[nH]1)C(=O)N[C@@H](CCCCN)C(=O)N[C@H](C(=O)NCC(=O)N[C@@H](CO)C(=O)N[C@@H](Cc1ccccc1)C(=O)N[C@H](C(=O)N[C@@H](CCCCN)C(=O)N[C@@H](CO)C(=O)N[C@@H](Cc1c[nH]c2ccccc12)C(=O)N[C@@H](CCCCN)C(=O)NCC(=O)N[C@@H](CCC(=O)O)C(=O)N[C@H](C(=O)N[C@@H](CCSC)C(=O)N[C@@H](CC(N)=O)C(=O)N[C@@H](CO)C(N)=O)[C@@H](C)CC)[C@@H](C)CC)C(C)C` [GIGKFLHKVGSFIKSWKGEIMNS], the MIC in assay [1] turned out to be 5 µM (≈ 12.8 µg/mL); in assay [2] it was 51.3 µM (≈ 131 µg/mL); in assay [3], 73 µM (≈ 187 µg/mL).
Regarding `C[C@H](NC(=O)[C@H](C)NC(=O)[C@H](CCCCN)NC(=O)[C@H](CCCCN)NC(=O)[C@H](C)NC(=O)[C@H](C)NC(=O)[C@H](CCCCN)NC(=O)[C@H](C)NC(=O)[C@H](C)NC(=O)[C@H](CCCCN)NC(=O)[C@H](CCCCN)NC(=O)[C@H](C)NC(=O)[C@H](C)NC(=O)[C@H](CCCCN)NC(=O)[C@H](C)NC(=O)[C@H](C)NC(=O)[C@H](CCCCN)NC(=O)[C@H](CCCCN)NC(=O)[C@H](C)NC(=O)[C@H](C)NC(=O)[C@@H](N)CCCCN)C(N)=O` [KAAKKAAKAAKKAAKAAKKAA], the MIC in assay [1] and in assay [5] was 8 µM (≈ 16.2 µg/mL) throughout.
As to `CC[C@H](C)[C@H](NC(=O)[C@H](CCCN=C(N)N)NC(=O)[C@H](CCCCN)NC(=O)[C@H](CC(C)C)NC(=O)[C@H](CC(C)C)NC(=O)CN)C(=O)N[C@@H](CCCCN)C(N)=O` [GLLKRIK], the MIC in assay [1] and in assay [5] was greater than 33.9 µM each time.
